Test results as given in ChEMBL document CHEMBL1123417, “New structure-activity relationships of the quinolone antibacterials using the target enzyme. The development and application of a DNA gyrase assay” (J Med Chem, 1986).
Values after ≈ are worked out from the molar mass of the structure shown.

Experiments:
[1] = molecular target: DNA gyrase (Escherichia coli) (UniProt P0AES6+P0AES4)
[2] = tested on: Escherichia coli; experiment: Antibacterial activity against Escherichia coli (vogel)
[3] = tested on: Escherichia coli; experiment: Antibacterial activity against Escherichia coli (H560)
[4] = tested on: Pseudomonas aeruginosa; experiment: Antibacterial activity against Pseudomonas aeruginosa (UI-18)
[5] = tested on: Staphylococcus aureus; experiment: Antibacterial activity against Staphylococcus aureus (H228)
[6] = tested on: Klebsiella pneumoniae; experiment: Antibacterial activity against Klebsiella pneumonia (MGH-2)
[7] = tested on: Streptococcus pneumoniae; experiment: Antibacterial activity against Streptococcus pneumoniae (SV-1)

In the case of CCn1cc(C(=O)O)c(=O)c2cc(F)ccc21, the gyrase cleavage conc [1] is reported as 50 µg/mL, the MIC [2] is reported as 0.8 mg/L (≈ 3.4 µM) and the MIC [3] is reported as 25 mg/L (≈ 106 µM). For the same compound, the MIC [4] was over 100 mg/L, the MIC [5] was over 100 mg/L and the MIC [6] was 1.6 mg/L (≈ 6.8 µM). It also gave an MIC [7] of over 100 mg/L.

Work on CCn1cc(C(=O)O)c(=O)c2cc([N+](=O)[O-])ccc21 yielded a gyrase cleavage conc [1] of over 100 µg/mL, an MIC [2] of 12.5 mg/L (≈ 47.7 µM) and an MIC [3] of 50 mg/L (≈ 191 µM). It also gave an MIC [4] of over 100 mg/L, an MIC [5] of over 100 mg/L and an MIC [6] of 12.5 mg/L (≈ 47.7 µM). It also gave an MIC [7] of 100 mg/L (≈ 381 µM).

CCn1cc(C(=O)O)c(=O)c2cc(F)c(N3CCN(CCN)CC3)nc21 gave a gyrase cleavage conc [1] of 6.3 µg/mL, an MIC [2] of 12.5 mg/L (≈ 34.4 µM) and an MIC [3] of 12.5 mg/L (≈ 34.4 µM). The MIC [4] was 50 mg/L (≈ 138 µM), the MIC [5] was 50 mg/L (≈ 138 µM) and the MIC [6] was 25 mg/L (≈ 68.8 µM). It also gave an MIC [7] of 12.5 mg/L (≈ 34.4 µM).

For CCn1cc(C(=O)O)c(=O)c2ccc(N3CCN(CC#N)CC3)cc21, the gyrase cleavage conc [1] was 18 µg/mL, the MIC [2] was 50 mg/L (≈ 147 µM) and the MIC [3] was 50 mg/L (≈ 147 µM). For the same compound, the MIC [4] was 100 mg/L (≈ 294 µM), the MIC [5] was 25 mg/L (≈ 73.4 µM) and the MIC [6] was over 100 mg/L. For the same compound, the MIC [7] was over 100 mg/L.

With CCn1cc(C(=O)O)c(=O)c2c(N)nc(N3CCN(C)CC3)nc21 the gyrase cleavage conc [1] was 100 µg/mL, the MIC [2] was 1.6 mg/L (≈ 4.81 µM) and the MIC [3] was 3.1 mg/L (≈ 9.33 µM). The MIC [4] was 100 mg/L (≈ 301 µM), the MIC [5] was 100 mg/L (≈ 301 µM) and the MIC [6] was 6.3 mg/L (≈ 19 µM). The MIC [7] was 100 mg/L (≈ 301 µM).

For CCn1cc(C(=O)O)c(=O)c2cc(F)c(N3CCN(C(C)=N)CC3)nc21, the gyrase cleavage conc [1] was 6.3 µg/mL, the MIC [2] was 3.1 mg/L (≈ 8.58 µM) and the MIC [3] was 0.8 mg/L (≈ 2.21 µM). It also gave an MIC [4] of 25 mg/L (≈ 69.2 µM), an MIC [5] of 50 mg/L (≈ 138 µM) and an MIC [6] of 6.3 mg/L (≈ 17.4 µM). It also gave an MIC [7] of 50 mg/L (≈ 138 µM).

Compound CCn1cc(C(=O)O)c(=O)c2cc(F)c(N3CCC(C(F)(F)F)CC3)cc21 has a gyrase cleavage conc [1] of 5 µg/mL, an MIC [2] of 6.3 mg/L (≈ 16.3 µM) and an MIC [3] of 6.3 mg/L (≈ 16.3 µM). For the same compound, the MIC [4] was over 100 mg/L, the MIC [5] was 0.1 mg/L (≈ 0.259 µM) and the MIC [6] was over 100 mg/L. For the same compound, the MIC [7] was 6.3 mg/L (≈ 16.3 µM).

Compound CCOC(=O)N1CCN(c2nc3c(cc2F)c(=O)c(C(=O)O)cn3CC)CC1 has a gyrase cleavage conc [1] of 18 µg/mL, an MIC [2] of 25 mg/L (≈ 63.7 µM) and an MIC [3] of 50 mg/L (≈ 127 µM). For the same compound, the MIC [4] was 200 mg/L (≈ 510 µM), the MIC [5] was 3.1 mg/L (≈ 7.9 µM) and the MIC [6] was 50 mg/L (≈ 127 µM). The MIC [7] was 100 mg/L (≈ 255 µM).

CCn1cc(C(=O)O)c(=O)c2cc(F)c(N3CCC(N4CCCC4)CC3)cc21 gave a gyrase cleavage conc [1] of 7.5 µg/mL, an MIC [2] of 0.4 mg/L (≈ 1.03 µM) and an MIC [3] of 0.1 mg/L (≈ 0.258 µM). The MIC [4] was 3.1 mg/L (≈ 8 µM), the MIC [5] was 3.1 mg/L (≈ 8 µM) and the MIC [6] was 1.6 mg/L (≈ 4.13 µM). It also gave an MIC [7] of 12.5 mg/L (≈ 32.3 µM).

Work on CCn1cc(C(=O)O)c(=O)c2cc([N+](=O)[O-])c(C)nc21 yielded a gyrase cleavage conc [1] of 50 µg/mL, an MIC [2] of 25 mg/L (≈ 90.2 µM) and an MIC [3] of 50 mg/L (≈ 180 µM). It also gave an MIC [4] of over 100 mg/L, an MIC [5] of 25 mg/L (≈ 90.2 µM) and an MIC [6] of 50 mg/L (≈ 180 µM). For the same compound, the MIC [7] was over 100 mg/L.

Compound CCn1cc(C(=O)O)c(=O)c2cc(F)c(Cl)cc21 has a gyrase cleavage conc [1] of 38 µg/mL, an MIC [2] of 0.8 mg/L (≈ 2.97 µM) and an MIC [3] of 1.6 mg/L (≈ 5.93 µM). The MIC [4] was 50 mg/L (≈ 185 µM), the MIC [5] was 3.1 mg/L (≈ 11.5 µM) and the MIC [6] was 1.6 mg/L (≈ 5.93 µM). For the same compound, the MIC [7] was 100 mg/L (≈ 371 µM).

CCn1cc(C(=O)O)c(=O)c2cc(N)c(C)nc21 gave a gyrase cleavage conc [1] of over 100 µg/mL, an MIC [2] of over 100 mg/L and an MIC [3] of 100 mg/L (≈ 404 µM). It also gave an MIC [4] of over 100 mg/L, an MIC [5] of 50 mg/L (≈ 202 µM) and an MIC [6] of over 100 mg/L. The MIC [7] was 50 mg/L (≈ 202 µM).

With CCn1cc(C(=O)O)c(=O)cc1C the gyrase cleavage conc [1] was 100 µg/mL, the MIC [2] was over 100 mg/L and the MIC [3] was over 100 mg/L. The MIC [4] was over 100 mg/L, the MIC [5] was over 100 mg/L and the MIC [6] was over 100 mg/L. It also gave an MIC [7] of over 100 mg/L.

Compound CCn1cc(C(=O)O)c(=O)c2c(N)nc(N3CCCC3)nc21 has a gyrase cleavage conc [1] of 100 µg/mL, an MIC [2] of 100 mg/L (≈ 330 µM) and an MIC [3] of 100 mg/L (≈ 330 µM). The MIC [4] was over 100 mg/L, the MIC [5] was 100 mg/L (≈ 330 µM) and the MIC [6] was over 100 mg/L. The MIC [7] was 25 mg/L (≈ 82.4 µM).

Compound CCn1cc(C(=O)O)c(=O)c2ccc(C)nc21 has a gyrase cleavage conc [1] of 50 µg/mL.

For CCn1cc(C(=O)O)c(=O)c2cc(F)c(N3CCSCC3)cc21, the gyrase cleavage conc [1] was 5 µg/mL, the MIC [2] was 0.1 mg/L (≈ 0.297 µM) and the MIC [3] was 0.1 mg/L (≈ 0.297 µM). For the same compound, the MIC [4] was 0.8 mg/L (≈ 2.38 µM), the MIC [5] was 0.006 mg/L (≈ 0.0178 µM) and the MIC [6] was 0.2 mg/L (≈ 0.595 µM). The MIC [7] was 12.5 mg/L (≈ 37.2 µM).

In the case of CCn1cc(C(=O)O)c(=O)cc1-c1ccc(OC)cc1, the gyrase cleavage conc [1] is reported as 100 µg/mL, the MIC [2] is reported as 50 mg/L (≈ 183 µM) and the MIC [3] is reported as over 100 mg/L. For the same compound, the MIC [4] was over 100 mg/L, the MIC [5] was over 100 mg/L and the MIC [6] was 50 mg/L (≈ 183 µM). For the same compound, the MIC [7] was over 100 mg/L.

With CCn1cc(C(=O)O)c(=O)c2cc(F)c(F)c(F)c21 the gyrase cleavage conc [1] was 38 µg/mL, the MIC [2] was 1.6 mg/L (≈ 5.9 µM) and the MIC [3] was 6.3 mg/L (≈ 23.2 µM). It also gave an MIC [4] of over 100 mg/L, an MIC [5] of 50 mg/L (≈ 184 µM) and an MIC [6] of 6.3 mg/L (≈ 23.2 µM). The MIC [7] was over 100 mg/L.

Compound CCn1cc(C(=O)O)c(=O)c2cc(F)c(C)nc21 has a gyrase cleavage conc [1] of 25 µg/mL, an MIC [2] of 3.1 mg/L (≈ 12.4 µM) and an MIC [3] of 3.1 mg/L (≈ 12.4 µM). For the same compound, the MIC [4] was 50 mg/L (≈ 200 µM), the MIC [5] was 25 mg/L (≈ 99.9 µM) and the MIC [6] was 6.3 mg/L (≈ 25.2 µM). For the same compound, the MIC [7] was over 100 mg/L.

With CCn1cc(C(=O)O)c(=O)c2cc(F)c(N3CCC(C(N)=O)CC3)cc21 the gyrase cleavage conc [1] was 7.5 µg/mL, the MIC [2] was 6.3 mg/L (≈ 17.4 µM) and the MIC [3] was 25 mg/L (≈ 69.2 µM). The MIC [4] was 50 mg/L (≈ 138 µM), the MIC [5] was 3.1 mg/L (≈ 8.58 µM) and the MIC [6] was 25 mg/L (≈ 69.2 µM). It also gave an MIC [7] of 6.3 mg/L (≈ 17.4 µM).

Compound CCn1cc(C(=O)O)c(=O)c2cc(F)c(/C=N/O)nc21 has a gyrase cleavage conc [1] of 50 µg/mL, an MIC [2] of 6.3 mg/L (≈ 22.6 µM) and an MIC [3] of over 100 mg/L. The MIC [4] was 100 mg/L (≈ 358 µM), the MIC [5] was 100 mg/L (≈ 358 µM) and the MIC [6] was 12.5 mg/L (≈ 44.8 µM). The MIC [7] was 100 mg/L (≈ 358 µM).
